Source: US20250177386A1, “METHOD OF TREATMENT OF DEPRESSED PATIENTS WITH POOR COGNITION AND SELECTION OF OTHER PATIENTS BENEFITING FROM A BENZYLPIPERAZINE-AMINOPYRIDINE AGENT” (Alto Neuroscience, Inc., priority 2021, published 2025)

Assays:
[1] = tested on: patients having major depressive disorder; experiment: Phase 2 clinical trial with NSI-189 (220 patients, SPCD design), retrospective analysis by baseline cognition; assay type: in vivo, human; details: for number needed to treat to achieve one more remission / odds ratio for drug response: 80 mg vs placebo; for odds ratio for drug response: remission at 6 weeks
Experimental: A subsequent Phase 2 study was then performed on 220 patients with major depression (11). In that study, patients were randomized to receive a total daily dose of 40 mg or 80 mg of NSI-189 or placebo in stage 1 of the clinical trial design. […] Treatment in either stage was given for six weeks. This design is termed a Sequential Parallel Clinical Design (SPCD), and is analyzed statistically by combining results in a pre-defined manner for outcomes differences between relevant groups (e.g., drug vs. placebo) in each of the stages individually. There are two depression outcome measures accepted by the United States Food and Drug Administration (FDA) for the evaluation of adults. See the June 2018 FDA draft guidance entitled “Major Depressive Disorder: Developing Drugs for Treatment.” These are the Montgomery-Asberg Depression Rating Scale (MADRS), which was the primary outcome in this study, as well as the Hamilton Depression Rating Scale (HDRS) which was a key secondary outcome measure. […] It was reported that any benefits of NSI-189 on depression and cognition are independent effects (27).
A retrospective analysis of the 220-patient phase 2 study of NSI-189 discussed above was performed. In the study, patients having major depressive disorder were randomized to receive a total daily dose of 40 mg or 80 mg of NSI-189 or placebo in stage 1 (first 6 weeks) of the clinical trial design. […] The remaining of patients continued on their treatment for stage 2 of the trial. Treatment in either stage was given for six weeks. Patients were eligible for study participation if they were between the ages of 18-60 years, with current major depressive disorder of at least 8 weeks duration according to the DSM-5, as diagnosed by the Structured Clinical Interview for the DSM-5 clinical trial version (SCID-5-CT) during the screen and remote assessment visits, and if they were scored at least 20 at screen, remote assessment, and baseline visits on the Montgomery-Asberg Depression Rating Scale (MADRS). The phase 2 study collected cognitive task performance data prior to treatment, and then again after both stage 1 and stage 2 of the treatment protocol. The purpose of doing so was to determine whether treatment with this compound results in improvement in cognitive functioning, as measured by a variety of behavioral measures.
Prior to the inventor's retrospective analysis, there was no consideration as to using behavioral measures to predict treatment outcome nor was there any analysis conducted to this effect. There was no consideration of using cognitive performance as a predictor but only as an outcome measure. […] The tasks in this battery included a simple reaction time (RT) task, a choice RT task, a one-back working memory task, and a visual learning task. Moreover, given the conversion to z-score, a composite cognitive task performance score could be computed by averaging the z-scores for each of the four tasks in the battery. Analyses focused on the MADRS primary outcome of the study, with supporting evidence subsequently produced by examining the HDRS key secondary outcome, as well as the CGI. Statistical analyses focused first on the complete trial (incorporating both stage 1 and stage 2 outcomes), using the SPCD analytic approach reported in the original study and thus aligned could be compared with the original statistical analysis plan. We used linear mixed models to predict change from baseline (at 2, 4, and 6 weeks) in clinical scores and included covariates for time, time x group, time x baseline MADRS and baseline MADRS. These covariates likewise were used in the original study, and thus results here can be compared with the all-comer results reported previously. Statistical significance was thus assessed on the primary outcome (MADRS change from baseline at 6 weeks across the SPCD design) and similar secondary outcomes (HDRS and CGI change from baseline at 6 weeks). […]

[2] = tested on: patients having major depressive disorder; details: cited from earlier work
[3] = tested on: patients with major depression; details: total daily doses of 40 mg, 80 mg or 120 mg; 18 patients on active dose (ref. 10); cited from earlier work

## CC(C)CCNc1ncccc1C(=O)N1CCN(Cc2ccccc2)CC1 [NSI-189, (4-benzylpiperazin-1-yl)-[2-(3-methylbutylamino)pyridin-3-yl]methanone]
[1]; 40 mg or 80 mg/day, good cognition group (composite score above patient mean), p=0.25
  change in MADRS scores, either drug arm versus placebo: no significant differences
[1]; 40 mg/day, poor cognition group (cognitive composite score), p=0.39
  change in MADRS scores, 40 mg group versus placebo: not significant
[1]; 80 mg arm from stage 1, composite score, 12 weeks of treatment
  durability of MADRS benefit, poor cognition compared to good cognition patients: stable and consistent throughout all 12 weeks of treatment
[1]; all-comer sample, 6 weeks, stage 1
  number needed to treat to achieve one more remission: 19.6
[1]; all-comer sample, stage 1
  odds ratio for drug response: 1.3
[1]; poor cognition subpopulation, 6 weeks, stage 1
  number needed to treat to achieve one more remission: 3.2
[1]; poor cognition subpopulation, stage 1
  odds ratio for drug response: 4.7
[1]; 80 mg/day, choice RT task, lenient cutoff z=+0.5, p=0.12
  change in MADRS scores, 80 mg versus placebo: did not yield a significant effect
[1]; 80 mg/day, cognitively impaired patients, six weeks, both stages, items 1, 7, 8, 9
  Cohen's d effect size per MADRS item, 80 mg versus placebo: notable effects
[1]; 80 mg/day, good cognition patients, 6 weeks, stage 1, chi-square p=0.014 vs poor cognition
  remission rate (score of 10 or less on the MADRS): 12%
[1]; 80 mg/day, late-life depression (LLD) group, 50 years or older
  MADRS depression score improvement, 80 mg over placebo: greater with 80 mg over placebo
[1]; 80 mg/day, non-LLD group, younger than 50
  MADRS depression score improvement, 80 mg versus placebo: indistinguishable between the two arms
[1]; 80 mg/day, poor cognition based on choice RT task, p=0.008
  symptom change on the HDRS, 80 mg relative to placebo: robust and significant effect
[1]; 80 mg/day, poor cognition defined by choice RT task, SPCD p=0.005
  change in MADRS scores, 80 mg versus placebo: robust and significant improvement over placebo
[1]; 80 mg/day, poor cognition defined by choice RT, p=0.0002
  Clinical Global Impression (CGI) severity, 80 mg over placebo: robust and significant advantage
[1]; 80 mg/day, poor cognition defined by one-back working memory, SPCD p=0.08
  change in MADRS scores, 80 mg versus placebo: trend-level significance
[1]; 80 mg/day, poor cognition defined by simple RT task, SPCD p=0.09
  change in MADRS scores, 80 mg versus placebo: trend-level significance
[1]; 80 mg/day, poor cognition group (cognitive composite score below patient mean), SPCD analysis p=0.014, 6 weeks
  change in MADRS scores, 80 mg arm versus placebo: robust and statistically significant effect
[1]; 80 mg/day, poor cognition on choice RT task, cutoff z=0, p=0.007
  change in MADRS scores, 80 mg versus placebo: significant superiority over placebo
[1]; 80 mg/day, poor cognition on choice RT task, cutoff z=-0.5, p=0.009
  change in MADRS scores, 80 mg versus placebo: significant superiority over placebo
[1]; 80 mg/day, poor cognition patients (composite score), 6 weeks, stage 1, chi-square p=0.017 vs placebo
  remission rate (score of 10 or less on the MADRS): 47%
[1]; 80 mg/day, poor cognition patients (composite score), p=0.002
  Clinical Global Impression (CGI) severity, 80 mg versus placebo: significantly more effective than placebo
[1]; 80 mg/day, poor cognition patients (composite score), p=0.038
  symptom change on the HDRS, 80 mg over placebo: significantly greater efficacy
[1]; good cognition group, 6 weeks, stage 1
  benefit in terms of remission rate: No benefit
[1]; patients with poor self-reported cognition (CPFQ score >25)
  MADRS depression score, difference between treatment arms: no difference is seen between treatment arms
[1]; week 6, stage 1 and stage 2, poor cognition subpopulation relative to all-comer sample
  Cohen's d effect sizes (MADRS, HDRS, CGI), 80 mg versus placebo: effect sizes increase substantially
[2]; 40 mg dose, all-comers, not corrected for multiple comparisons
  effects on several secondary measures compared to placebo: nominally significant effects
[2]; 80 mg daily dose, entire study population (ref. 11)
  efficacy on any study measure: did not demonstrate efficacy
[2]; original all-comer analysis, 40 mg or 80 mg/day, full SPCD analysis or each stage alone (ref. 11)
  antidepressant efficacy on MADRS primary outcome and HDRS key secondary measure: failed to demonstrate any evidence of antidepressant efficacy
[3]
  potential antidepressant efficacy: promising evidence
